Data as given in patent US8741957B2, “Alpha-aminoamide derivatives useful in the treatment of cognitive disorders” (priority 2006, dated 2014).

Columns and labels:
[1] = tested on: early-mild Parkinson's Disease; conditions: after eight weeks (end of study); cited from earlier work
[2] = tested on: patients with PD-related Dementia (PDD); conditions: cited from earlier work
[3] = in vivo; cited from earlier work
[4] = tested on: early and moderate-to-advanced PD patients; conditions: 1 mg dose once daily; cited from earlier work
animal models = conditions: cited from earlier work
MAO-A = biological target: T1, MAO-A (Homo sapiens, UniProt P21397); conditions: cited from earlier work
T1 sequence (P21397 1-527): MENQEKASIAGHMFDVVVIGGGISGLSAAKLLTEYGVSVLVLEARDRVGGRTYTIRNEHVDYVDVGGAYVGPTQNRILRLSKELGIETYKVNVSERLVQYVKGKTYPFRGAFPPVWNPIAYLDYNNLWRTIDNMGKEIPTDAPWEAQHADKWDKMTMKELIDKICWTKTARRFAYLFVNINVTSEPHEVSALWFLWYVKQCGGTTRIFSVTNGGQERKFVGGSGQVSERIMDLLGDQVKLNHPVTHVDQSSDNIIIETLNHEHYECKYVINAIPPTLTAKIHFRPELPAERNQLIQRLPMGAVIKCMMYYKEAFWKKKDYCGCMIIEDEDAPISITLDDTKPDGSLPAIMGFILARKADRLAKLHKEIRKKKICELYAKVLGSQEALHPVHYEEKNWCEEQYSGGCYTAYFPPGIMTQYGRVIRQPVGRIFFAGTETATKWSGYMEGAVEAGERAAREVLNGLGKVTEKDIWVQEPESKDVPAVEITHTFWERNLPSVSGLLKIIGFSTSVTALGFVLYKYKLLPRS

MAO-B = biological target: T2, MAO-B (Homo sapiens, UniProt P27338); conditions: cited from earlier work
T2 sequence (P27338 1-520): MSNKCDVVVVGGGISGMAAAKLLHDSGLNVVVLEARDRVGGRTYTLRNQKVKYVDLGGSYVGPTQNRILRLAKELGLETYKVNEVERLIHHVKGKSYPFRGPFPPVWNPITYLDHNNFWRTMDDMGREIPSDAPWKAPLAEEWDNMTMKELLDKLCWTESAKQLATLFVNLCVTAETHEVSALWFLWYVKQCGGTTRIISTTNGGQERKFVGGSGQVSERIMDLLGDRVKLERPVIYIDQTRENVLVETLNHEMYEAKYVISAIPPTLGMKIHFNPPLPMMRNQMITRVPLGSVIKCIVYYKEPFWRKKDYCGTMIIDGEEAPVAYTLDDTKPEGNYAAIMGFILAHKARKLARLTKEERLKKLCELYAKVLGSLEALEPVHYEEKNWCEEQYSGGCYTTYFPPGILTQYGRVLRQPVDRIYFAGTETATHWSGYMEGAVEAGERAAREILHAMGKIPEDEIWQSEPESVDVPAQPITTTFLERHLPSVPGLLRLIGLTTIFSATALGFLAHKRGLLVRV

[5] = tested on: non demented patients with early PD; test: Cogtest cognitive battery in double blind Phase III study, safinamide added to a dopamine agonist; format: in vivo, human
Description: Cogtest® (Computerized Cognitive Test Battery for Clinical Trials) is designed to provide with the highest quality computerised cognitive tests for use in clinical trials. All cognitive tests in the Cogtest® battery have been developed by academic neuropsychologists and clinical trials specialists. This ensures that the most recent developments in cognitive neuroscience, including neurophysiological, functioning neuroimaging and pharmacogenic evidence are incorporated into the Cogtest® library of procedures and into pharmaceutical clinical trials.
The Cogtest PD battery has been prepared, based on a review of the available tests in the Cogtest library and selection of those tests that would most usefully comprise a battery suitable for Parkinson's Disease. However the same tasks are used in other pathological conditions for testing the two main domains of cognition, reaction time and power.
The battery takes from 20-30 minutes to administer, and is applicable across different cultures and countries. The following tests were included in the battery:
The Auditory Number Sequencing task is a test of working memory and executive function. The participant will be presented with clusters of numbers (e.g. 936) of increasing length (from 2 digits to a maximum of 8 digits). They will be asked to tell the tester the numbers in order, from lowest to highest. […]
This test is similar to the paper-and-pencil ‘cancellation’ tests or the cross-out’ subtest of the WAIS-III, where subjects are required to crossout target stimuli embedded among distracters. […] The variables measured are: Total Experiment Time (from the end of the ‘Get ready’ screen to the end of the last response, in msec), Total Correct responses, Total Perseverative Errors (erroneous pressing of the shape that was the target of the last set, but is not for this set), Strategic efficiency variable (the cumulative distance of territory transversed, i.e., between the location of correct presses on screen for each set) according to literature (Weintraub, S., & Mesulam, M. M. (1987). Archives of Neurology 44 621-625). […]

normal rats = conditions: safinamide per se; cited from earlier work
glutamate receptors = conditions: cited from earlier work
cholinesterase = conditions: cited from earlier work
[6] = tested on: non demented patients with early PD; test: UPDRS motor scores in six month double blind clinical trial; format: in vivo, human; conditions: safinamide associated to a dopamine agonist, compared to the group treated with the DA alone
Description: A double blind Phase III study, placebo controlled, parallel-group, randomized, multinational was conducted comparing 2 oral doses of Safinamide versus placebo. The placebo group was constituted by patients treated with a stable dose of a dopamine agonist. The dopamine agonist could have been any of the ones used in clinical practice, according to clinical procedures in the different countries. 269 patients (˜90 per arm), were enrolled and treated for six months. Primary efficacy variable was UPDRS III. All the randomized patients were tested for cognitive impairment with Cogtest at Screening, Baseline, week 12 and week 24 (or early discontinuation).

PD patients = conditions: after 3 month treatment; cited from earlier work
glutamate release = conditions: in condition of pathological glutamate overflow; cited from earlier work
[7] = literature reports; cited from earlier work
mild PD patients = conditions: in comparison to levodopa; cited from earlier work

For `CCCN1C[C@H](CSC)C[C@@H]2c3cccc4[nH]cc(c34)C[C@H]21` [pergolide], the cognitive test scores [1] is listed as “without showing amelioration”.
For `CCN(C)C(=O)Oc1cccc([C@H](C)N(C)C)c1` [rivastigmine], the “subjective worsening of tremor reported” value ([2]; in vivo) is given as 1.7%, the “patients dropped out due to adverse events” value ([2]; most commonly due to nausea) is given as 17% and the “response on primary (ADAS-Cog, Clinical Global Impression of Change) and all secondary outcome measures” value ([2]; versus placebo, differences were moderate) is given as “responded better”.
For `CN1CCc2cccc3c2[C@H]1Cc1ccc(O)c(O)c1-3` [apomorphine], the “reaction times in visual-spatial working memory (WM)” value [3] is given as “negative effect”.
For `C#CCN[C@@H]1CCc2ccccc21` [rasagiline], the “occurrence of cognitive and behavioural adverse events” value [4] is given as “without significantly increasing” and the “symptoms of PD, including motor fluctuations” value [4] is given as “improved”.
For `C[C@H](NCc1ccc(OCc2cccc(F)c2)cc1)C(N)=O` [safinamide, (S)-(+)-2-[4-(3-fluorobenzyloxy)-benzylamino]-propanamide], the “long term neuroprotective effects” value (animal models) is listed as “demonstrated”, the “activity on MAO-A” value (MAO-A) is listed as “devoid of activity” and the MAO-B inhibition (MAO-B) is listed as “selective MAO-B inhibitor”. The “several cognitive variables (Cogtest), change from baseline” value ([5]; both groups, low and high dose of safinamide, with a stable dose of a DA, three and six months evaluation times, most marked for executive function) was “significant improvement from baseline”, the “Strategic Target Detection test, observed score (Z-score)” value ([5]; both treated groups (low and high dose of safinamide), from baseline to both three and six months) was “significant improvement” and the “cognition compared with DA alone (control group) and with pretreatment” value ([5]; safinamide associated to a dopamine agonist, check at three and six months after start of treatment) was “ameliorate cognitive worsening observed in controls and/or improve cognition as compared to pretreatment”. For the same molecule, the “cognition in the rat passive avoidance test” value (normal rats) was “does not ameliorate cognition”, the “affinity for any of the glutamate receptors” value (glutamate receptors) was “no affinity” and the cholinesterase inhibition (cholinesterase) was “not cholinesterase inhibitors”. For the same molecule, the “UPDRS scores (motor symptoms)” value [6] was “significantly ameliorate”, the UPDRS scores (PD patients) was “significantly ameliorated” and the glutamate release inhibition (glutamate release) was “glutamate release inhibitor”.
For `N[C@@H](Cc1ccc(O)c(O)c1)C(=O)O` [levodopa], the effect on cognition [7] is listed as “no effect on cognition, or even impairment”.
For `CCCN[C@H]1CCc2nc(N)sc2C1` [pramipexole], the “short term verbal memory and attentional-executive functions” value (mild PD patients) is given as “impaired” and the verbal fluency (mild PD patients) is given as “slightly but significantly worsened”.
